Source: the kinase profiling compilation of Christmann-Franck et al. (2016)

How the values were obtained:
Assay in all cases: radiometric filter-binding kinase assay
[1] = biological target: MAP3K7 TAB1 (human) (UniProt Q15750+O43318)
[2] = biological target: MYLK (human) (UniProt Q15746)
[3] = biological target: CHEK2 (human) (UniProt O96017)
[4] = biological target: MARK2 (human) (UniProt Q7KZI7)
[5] = biological target: TTK (human) (UniProt P33981)
[6] = system: PAK2 (human), Q13177 [T402E]
[7] = biological target: MAPK10 (human) (UniProt P53779)
[8] = biological target: TBK1 (human) (UniProt Q9UHD2)
[9] = biological target: IKBKB (human) (UniProt O14920)
IKBKB (human), sequence (O14920 whole entry, looked up): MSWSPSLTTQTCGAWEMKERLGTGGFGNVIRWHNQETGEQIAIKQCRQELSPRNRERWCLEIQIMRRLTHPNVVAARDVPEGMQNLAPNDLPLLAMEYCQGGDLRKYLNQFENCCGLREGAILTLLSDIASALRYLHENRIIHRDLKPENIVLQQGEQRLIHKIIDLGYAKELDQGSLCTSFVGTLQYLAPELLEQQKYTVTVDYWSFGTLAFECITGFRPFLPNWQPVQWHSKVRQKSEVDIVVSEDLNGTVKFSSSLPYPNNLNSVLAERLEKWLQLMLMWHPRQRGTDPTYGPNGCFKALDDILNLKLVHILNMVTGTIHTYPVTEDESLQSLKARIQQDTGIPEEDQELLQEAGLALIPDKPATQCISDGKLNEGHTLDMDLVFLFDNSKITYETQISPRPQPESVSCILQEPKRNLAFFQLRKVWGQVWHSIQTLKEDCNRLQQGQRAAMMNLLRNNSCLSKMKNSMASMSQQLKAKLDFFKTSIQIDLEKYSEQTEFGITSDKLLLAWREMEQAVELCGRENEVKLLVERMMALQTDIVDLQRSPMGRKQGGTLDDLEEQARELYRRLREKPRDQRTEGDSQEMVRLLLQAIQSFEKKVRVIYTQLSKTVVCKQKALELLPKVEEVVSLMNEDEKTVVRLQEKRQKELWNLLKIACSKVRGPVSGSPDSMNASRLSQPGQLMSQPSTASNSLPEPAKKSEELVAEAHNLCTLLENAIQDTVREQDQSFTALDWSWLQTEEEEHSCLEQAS

[10] = biological target: MST4 (human) (UniProt Q9P289)
[11] = biological target: EPHB3 (human) (UniProt P54753)
[12] = biological target: CaMK1 (human) (UniProt Q14012)
[13] = biological target: PKN2 (human) (UniProt Q16513)
[14] = biological target: AURKB (human) (UniProt Q96GD4)
AURKB (human), sequence (Q96GD4 whole entry, looked up): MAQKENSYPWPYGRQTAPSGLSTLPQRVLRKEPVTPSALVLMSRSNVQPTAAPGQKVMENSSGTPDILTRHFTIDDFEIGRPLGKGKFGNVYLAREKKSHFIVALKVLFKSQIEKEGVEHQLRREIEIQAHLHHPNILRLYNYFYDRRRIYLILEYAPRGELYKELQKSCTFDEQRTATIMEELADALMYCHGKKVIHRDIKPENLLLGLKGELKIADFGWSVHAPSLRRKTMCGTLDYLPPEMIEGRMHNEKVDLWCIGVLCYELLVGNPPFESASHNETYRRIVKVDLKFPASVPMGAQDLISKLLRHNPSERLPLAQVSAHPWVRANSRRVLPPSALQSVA

[15] = biological target: PAK6 (human) (UniProt Q9NQU5)
PAK6 (human), sequence (Q9NQU5 whole entry, looked up): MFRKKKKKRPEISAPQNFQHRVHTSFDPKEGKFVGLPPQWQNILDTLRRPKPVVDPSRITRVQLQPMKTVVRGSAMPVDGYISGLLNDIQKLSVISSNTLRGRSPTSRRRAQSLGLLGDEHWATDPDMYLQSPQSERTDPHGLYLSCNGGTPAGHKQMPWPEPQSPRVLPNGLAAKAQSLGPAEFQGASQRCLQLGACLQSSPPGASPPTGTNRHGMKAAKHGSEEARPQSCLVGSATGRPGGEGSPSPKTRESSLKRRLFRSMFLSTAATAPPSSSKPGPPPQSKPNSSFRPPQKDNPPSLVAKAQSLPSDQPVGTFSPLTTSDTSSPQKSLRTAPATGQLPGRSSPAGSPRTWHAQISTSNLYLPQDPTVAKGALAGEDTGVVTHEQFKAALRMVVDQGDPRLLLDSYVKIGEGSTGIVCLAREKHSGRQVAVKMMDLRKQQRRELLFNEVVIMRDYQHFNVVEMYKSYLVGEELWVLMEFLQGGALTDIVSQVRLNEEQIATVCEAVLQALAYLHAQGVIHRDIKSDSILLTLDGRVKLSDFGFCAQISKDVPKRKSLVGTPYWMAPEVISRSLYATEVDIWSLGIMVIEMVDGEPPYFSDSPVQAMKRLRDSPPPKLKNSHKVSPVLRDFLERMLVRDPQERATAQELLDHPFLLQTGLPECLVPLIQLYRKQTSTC

[16] = biological target: CSK (human) (UniProt P41240)
[17] = system: AKT1 (human), P31749 [S473D]
[18] = biological target: PAK4 (human) (UniProt O96013)
[19] = biological target: EPHA2 (human) (UniProt P29317)
[20] = biological target: CHEK1 (human) (UniProt O14757)
[21] = biological target: EPHB2 (human) (UniProt P29323)
[22] = system: LCK (mouse); conditions: accession and sequence are those of the human protein
[23] = biological target: MINK1 (human) (UniProt Q8N4C8)
[24] = biological target: GCK (human) (UniProt Q12851)
[25] = biological target: DYRK3 (human) (UniProt O43781)
DYRK3 (human), sequence (O43781 whole entry, looked up): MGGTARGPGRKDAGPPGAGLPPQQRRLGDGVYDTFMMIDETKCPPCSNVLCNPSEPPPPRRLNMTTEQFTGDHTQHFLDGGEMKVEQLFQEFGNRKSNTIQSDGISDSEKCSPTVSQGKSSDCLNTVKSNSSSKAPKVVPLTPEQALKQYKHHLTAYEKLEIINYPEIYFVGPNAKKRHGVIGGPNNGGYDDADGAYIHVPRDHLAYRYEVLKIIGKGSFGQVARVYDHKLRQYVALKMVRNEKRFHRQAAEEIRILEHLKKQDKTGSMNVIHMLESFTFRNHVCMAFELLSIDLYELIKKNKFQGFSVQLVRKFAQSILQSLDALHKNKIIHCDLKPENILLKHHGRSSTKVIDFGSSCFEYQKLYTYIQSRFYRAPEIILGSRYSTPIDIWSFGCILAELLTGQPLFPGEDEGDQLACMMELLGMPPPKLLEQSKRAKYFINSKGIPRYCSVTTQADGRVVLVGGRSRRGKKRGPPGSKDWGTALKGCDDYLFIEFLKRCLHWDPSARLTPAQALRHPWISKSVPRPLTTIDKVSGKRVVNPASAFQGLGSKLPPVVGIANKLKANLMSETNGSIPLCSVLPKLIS

[26] = biological target: MAP3K11 (human) (UniProt Q16584)
[27] = system: ROCK2 (rat); conditions: accession and sequence are those of the human protein
[28] = biological target: TAOK1 (human) (UniProt Q7L7X3)
[29] = biological target: MAP2K1 (human) (UniProt Q02750)
[30] = biological target: NUAK1 (human) (UniProt O60285)
NUAK1 (human), sequence (O60285 whole entry, looked up): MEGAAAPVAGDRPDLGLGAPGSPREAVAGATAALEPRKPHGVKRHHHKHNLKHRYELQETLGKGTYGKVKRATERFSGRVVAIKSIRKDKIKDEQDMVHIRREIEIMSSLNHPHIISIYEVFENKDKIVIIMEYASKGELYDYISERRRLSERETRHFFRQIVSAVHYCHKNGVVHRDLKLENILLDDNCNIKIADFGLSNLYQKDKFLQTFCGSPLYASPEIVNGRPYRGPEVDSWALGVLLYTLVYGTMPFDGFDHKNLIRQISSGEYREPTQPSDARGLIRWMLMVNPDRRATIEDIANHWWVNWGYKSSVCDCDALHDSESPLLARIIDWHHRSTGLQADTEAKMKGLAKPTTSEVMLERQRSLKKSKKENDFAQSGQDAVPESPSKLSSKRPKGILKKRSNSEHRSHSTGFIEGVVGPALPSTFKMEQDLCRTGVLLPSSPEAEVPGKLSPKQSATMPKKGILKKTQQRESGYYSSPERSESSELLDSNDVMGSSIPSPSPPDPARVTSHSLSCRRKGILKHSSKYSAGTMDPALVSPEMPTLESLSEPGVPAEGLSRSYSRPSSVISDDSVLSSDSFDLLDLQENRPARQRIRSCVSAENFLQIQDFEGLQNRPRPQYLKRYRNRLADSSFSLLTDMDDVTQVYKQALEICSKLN

[31] = biological target: CDK2 CCNA2 (human) (UniProt P20248+P24941)
[32] = biological target: EPHB1 (human) (UniProt P54762)
[33] = biological target: MAPK8 (human) (UniProt P45983)
[34] = biological target: RPS6KA3 KD1 KD2 (human) (UniProt P51812)
[35] = biological target: EPHA4 (human) (UniProt P54764)

MAP3K7 TAB1 (human), sequence (O43318 whole entry, looked up): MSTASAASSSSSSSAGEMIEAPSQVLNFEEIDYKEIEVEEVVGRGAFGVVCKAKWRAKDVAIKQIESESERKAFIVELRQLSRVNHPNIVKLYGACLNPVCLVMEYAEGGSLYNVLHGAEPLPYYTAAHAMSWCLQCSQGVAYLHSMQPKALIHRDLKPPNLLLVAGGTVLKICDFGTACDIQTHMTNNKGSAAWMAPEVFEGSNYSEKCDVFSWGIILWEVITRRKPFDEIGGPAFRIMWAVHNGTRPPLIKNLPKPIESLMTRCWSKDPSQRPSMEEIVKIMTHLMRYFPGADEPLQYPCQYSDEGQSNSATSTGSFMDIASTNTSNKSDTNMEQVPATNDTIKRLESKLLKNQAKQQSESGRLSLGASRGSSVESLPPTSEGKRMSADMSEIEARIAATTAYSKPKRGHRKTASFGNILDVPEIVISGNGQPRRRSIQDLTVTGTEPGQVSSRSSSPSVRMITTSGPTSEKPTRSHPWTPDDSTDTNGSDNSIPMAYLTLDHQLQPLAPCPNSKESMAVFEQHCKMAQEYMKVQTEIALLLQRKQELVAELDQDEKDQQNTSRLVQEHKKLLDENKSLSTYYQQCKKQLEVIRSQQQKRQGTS
MAP3K7 TAB1 (human), sequence (Q15750 whole entry, looked up): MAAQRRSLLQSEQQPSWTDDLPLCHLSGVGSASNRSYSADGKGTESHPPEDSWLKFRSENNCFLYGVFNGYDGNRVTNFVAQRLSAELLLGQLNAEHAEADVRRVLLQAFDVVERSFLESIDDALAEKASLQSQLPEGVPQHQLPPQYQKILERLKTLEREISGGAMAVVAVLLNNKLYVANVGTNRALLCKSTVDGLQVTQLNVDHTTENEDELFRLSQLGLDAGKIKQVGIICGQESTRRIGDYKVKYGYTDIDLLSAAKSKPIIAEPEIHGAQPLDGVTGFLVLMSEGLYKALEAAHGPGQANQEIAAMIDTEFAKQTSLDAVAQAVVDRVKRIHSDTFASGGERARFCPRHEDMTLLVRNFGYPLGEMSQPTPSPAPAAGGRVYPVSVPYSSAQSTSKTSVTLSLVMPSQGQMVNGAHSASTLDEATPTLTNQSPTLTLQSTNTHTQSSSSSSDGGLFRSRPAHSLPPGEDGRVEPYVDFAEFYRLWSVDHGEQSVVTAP
TTK (human), sequence (P33981 whole entry, looked up): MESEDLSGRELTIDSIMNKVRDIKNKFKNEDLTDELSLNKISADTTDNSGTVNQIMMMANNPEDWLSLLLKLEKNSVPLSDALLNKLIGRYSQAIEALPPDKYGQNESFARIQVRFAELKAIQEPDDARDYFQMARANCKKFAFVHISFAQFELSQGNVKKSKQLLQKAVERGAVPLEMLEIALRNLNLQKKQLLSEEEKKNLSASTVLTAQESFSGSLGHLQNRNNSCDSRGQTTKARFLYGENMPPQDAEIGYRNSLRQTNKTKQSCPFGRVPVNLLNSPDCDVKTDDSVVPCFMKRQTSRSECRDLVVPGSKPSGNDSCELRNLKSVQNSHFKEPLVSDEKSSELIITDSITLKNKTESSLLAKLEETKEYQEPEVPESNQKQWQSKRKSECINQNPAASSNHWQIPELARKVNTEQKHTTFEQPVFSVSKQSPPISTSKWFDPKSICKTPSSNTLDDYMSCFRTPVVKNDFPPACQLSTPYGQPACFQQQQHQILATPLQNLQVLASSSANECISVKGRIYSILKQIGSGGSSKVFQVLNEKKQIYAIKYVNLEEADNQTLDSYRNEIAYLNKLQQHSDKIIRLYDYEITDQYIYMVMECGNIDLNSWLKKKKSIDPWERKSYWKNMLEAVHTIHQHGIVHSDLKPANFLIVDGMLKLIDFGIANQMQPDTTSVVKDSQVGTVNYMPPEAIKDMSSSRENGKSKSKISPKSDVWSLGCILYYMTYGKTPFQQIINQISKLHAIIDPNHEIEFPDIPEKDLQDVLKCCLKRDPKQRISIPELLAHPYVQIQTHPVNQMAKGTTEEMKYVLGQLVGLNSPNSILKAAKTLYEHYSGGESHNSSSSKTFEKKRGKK

- residual activity ([1]; compound 0.1 µM): 102%
- residual activity ([1]; compound 1.0 µM): 106%
- residual activity ([1]; compound 10.0 µM): 66%
- residual activity ([2]; compound 0.1 µM): 79%
- residual activity ([2]; compound 1.0 µM): 90%
- residual activity ([2]; compound 10.0 µM): 44%
- residual activity ([3]; compound 0.1 µM): 92%
- residual activity ([3]; compound 1.0 µM): 77%
- residual activity ([3]; compound 10.0 µM): 35%
- residual activity ([4]; compound 0.1 µM): 88%
- residual activity ([4]; compound 1.0 µM): 102%
- residual activity ([4]; compound 10.0 µM): 82%
- residual activity ([5]; compound 0.1 µM): 95%
- residual activity ([5]; compound 1.0 µM): 101%
- residual activity ([5]; compound 10.0 µM): 82%
- residual activity ([6]; compound 0.1 µM): 87%
- residual activity ([6]; compound 1.0 µM): 72%
- residual activity ([6]; compound 10.0 µM): 55%
- residual activity ([7]; compound 0.1 µM): 84%
- residual activity ([7]; compound 1.0 µM): 96%
- residual activity ([7]; compound 10.0 µM): 86%
- residual activity ([8]; compound 0.1 µM): 102%
- residual activity ([8]; compound 1.0 µM): 113%
- residual activity ([8]; compound 10.0 µM): 90%
- residual activity ([9]; compound 0.1 µM): 94%
- residual activity ([9]; compound 1.0 µM): 107%
- residual activity ([9]; compound 10.0 µM): 90%
- residual activity ([10]; compound 0.1 µM): 100%
- residual activity ([10]; compound 1.0 µM): 73%
- residual activity ([10]; compound 10.0 µM): 27%
- residual activity ([11]; compound 0.1 µM): 99%
- residual activity ([11]; compound 1.0 µM): 96%
- residual activity ([11]; compound 10.0 µM): 51%
- residual activity ([12]; compound 0.1 µM): 80%
- residual activity ([12]; compound 1.0 µM): 99%
- residual activity ([12]; compound 10.0 µM): 33%
- residual activity ([13]; compound 0.1 µM): 109%
- residual activity ([13]; compound 1.0 µM): 100%
- residual activity ([13]; compound 10.0 µM): 90%
- residual activity ([14]; compound 0.1 µM): 96%
- residual activity ([14]; compound 1.0 µM): 61%
- residual activity ([14]; compound 10.0 µM): 13%
- residual activity ([15]; compound 0.1 µM): 95%
- residual activity ([15]; compound 1.0 µM): 97%
- residual activity ([15]; compound 10.0 µM): 82%
- residual activity ([16]; compound 0.1 µM): 25%
- residual activity ([16]; compound 1.0 µM): 15%
- residual activity ([16]; compound 10.0 µM): 3%
- residual activity ([17]; compound 0.1 µM): 79%
- residual activity ([17]; compound 1.0 µM): 97%
- residual activity ([17]; compound 10.0 µM): 78%
- residual activity ([18]; compound 0.1 µM): 93%
- residual activity ([18]; compound 1.0 µM): 85%
- residual activity ([18]; compound 10.0 µM): 42%
- residual activity ([19]; compound 0.1 µM): 91%
- residual activity ([19]; compound 1.0 µM): 98%
- residual activity ([19]; compound 10.0 µM): 64%
- residual activity ([20]; compound 0.1 µM): 76%
- residual activity ([20]; compound 1.0 µM): 93%
- residual activity ([20]; compound 10.0 µM): 77%
- residual activity ([21]; compound 0.1 µM): 102%
- residual activity ([21]; compound 1.0 µM): 65%
- residual activity ([21]; compound 10.0 µM): 11%
- residual activity ([22]; compound 0.1 µM): 22%
- residual activity ([22]; compound 10.0 µM): 9%
- residual activity ([23]; compound 0.1 µM): 90%
- residual activity ([23]; compound 1.0 µM): 91%
- residual activity ([23]; compound 10.0 µM): 57%
- residual activity ([24]; compound 0.1 µM): 98%
- residual activity ([24]; compound 1.0 µM): 77%
- residual activity ([24]; compound 10.0 µM): 38%
- residual activity ([25]; compound 0.1 µM): 93%
- residual activity ([25]; compound 1.0 µM): 86%
- residual activity ([25]; compound 10.0 µM): 68%
- residual activity ([26]; compound 0.1 µM): 87%
- residual activity ([26]; compound 1.0 µM): 65%
- residual activity ([26]; compound 10.0 µM): 28%
- residual activity ([27]; compound 0.1 µM): 93%
- residual activity ([27]; compound 1.0 µM): 111%
- residual activity ([27]; compound 10.0 µM): 69%
- residual activity ([28]; compound 0.1 µM): 113%
- residual activity ([28]; compound 1.0 µM): 119%
- residual activity ([29]; compound 0.1 µM): 85%
- residual activity ([29]; compound 1.0 µM): 76%
- residual activity ([29]; compound 10.0 µM): 56%
- residual activity ([30]; compound 0.1 µM): 99%
- residual activity ([30]; compound 1.0 µM): 82%
- residual activity ([30]; compound 10.0 µM): 26%
- residual activity ([31]; compound 0.1 µM): 89%
- residual activity ([31]; compound 1.0 µM): 99%
- residual activity ([31]; compound 10.0 µM): 84%
- residual activity ([32]; compound 0.1 µM): 72%
- residual activity ([32]; compound 1.0 µM): 90%
- residual activity ([32]; compound 10.0 µM): 86%
- residual activity ([33]; compound 0.1 µM): 98%
- residual activity ([33]; compound 1.0 µM): 98%
- residual activity ([33]; compound 10.0 µM): 75%
- residual activity ([34]; compound 0.1 µM): 103%
- residual activity ([34]; compound 1.0 µM): 106%
- residual activity ([34]; compound 10.0 µM): 68%
- residual activity ([35]; compound 1.0 µM): 92%
- residual activity ([35]; compound 10.0 µM): 45%
SMILES: C=CC(=O)N1CCC[C@@H](n2nc(-c3ccc(Oc4ccccc4)cc3)c3c(N)ncnc32)C1
